The source made the active and inactive calls. No cut-off for these calls is given here.
Experiments:
PC-12 [1] = test: Neuroprotective activity against H2O2-induced cytotoxicity in rat PC12 cells assessed as cell viability at 10 umol/L preincubated for 2 hrs followed by H2O2 addition and measured after 24 hrs by MTT assay (reference value: 18.9 +/- 2.2%); type: functional; conditions: for viability at 10 µM: read-out: Activity
RAW264.7 = test: Inhibition of LPS-induced NO production in mouse RAW264.7 cells at 10 umol/L after 24 hrs preincubated for 30 mins followed by LPS addition measured after 24 hrs by Griess assay relative to control; type: functional
PC-12 [2] = test: Neuroprotective activity against H2O2-induced cytotoxicity in rat PC12 cells assessed as cell viability at 1 mM preincubated for 2 hrs followed by H2O2 addition and measured after 24 hrs by MTT assay (reference value: 18.9 +/- 2.2%); type: functional; conditions: read-out: Activity
Mus musculus [3] = test: Cognition enhancing effect in scopolamine-induced cognitive impairment mouse model assessed as increase in time spent in target quadrant at 3 mg/kg, ig administered once in a day for 14 consecutive days followed by scopolamine challenge 1 hr post last dose by Morris water maze test; type: functional, organism-based
Mus musculus [4] = test: Cognition enhancing effect in scopolamine-induced cognitive impairment mouse model assessed as increase in time spent in target quadrant at 6 mg/kg, ig administered once in a day for 14 consecutive days followed by scopolamine challenge 1 hr post last dose by Morris water maze test; type: functional, organism-based

Structure (SMILES) | viability at 10 µM (PC-12 [1]) [%] | inhibition at 10 µM (RAW264.7) [%] | further results
C[C@H]1CC[C@@]2(OC1)O[C@H]1C[C@H]3[C@@H]4CC[C@@H]5C[C@@H](OC(=O)NC6CCCCC6)CC[C@]5(C)[C@H]4CC[C@]3(C)[C@H]1[C@@H]2C | 52.2 | 4.6 | –
C[C@H]1CC[C@@]2(OC1)O[C@H]1C[C@H]3[C@@H]4CC[C@@H]5C[C@@H](OC(=O)NCc6ccc(Cl)cc6)CC[C@]5(C)[C@H]4CC[C@]3(C)[C@H]1[C@@H]2C | 49.8 | 21.4 | –
CC(=O)N[C@@H](CS)C(=O)O [ACETYLCYSTEINE] | – | – | viability at 1000 µM (PC-12 [2]): 35.3%
C[C@H]1CC[C@@]2(OC1)O[C@H]1C[C@H]3[C@@H]4CC[C@@H]5C[C@@H](OC(=O)NCc6cccc(Cl)c6)CC[C@]5(C)[C@H]4CC[C@]3(C)[C@H]1[C@@H]2C | 40.3 | 19.3 | –
C[C@H]1CC[C@@]2(OC1)O[C@H]1C[C@H]3[C@@H]4CC[C@@H]5C[C@@H](OC(=O)N6CCCC6)CC[C@]5(C)[C@H]4CC[C@]3(C)[C@H]1[C@@H]2C | 16.1 | – | –
COc1cc2c(cc1OC)C(=O)C(CC1CCN(Cc3ccccc3)CC1)C2 (centres undefined) | – | – | Activity (Mus musculus [3]): Active
C[C@H]1CC[C@@]2(OC1)O[C@H]1C[C@H]3[C@@H]4CC[C@@H]5C[C@@H](OC(=O)N6CCNCC6)CC[C@]5(C)[C@H]4CC[C@]3(C)[C@H]1[C@@H]2C | 3.4 | – | –
C[C@H]1CC[C@@]2(OC1)O[C@H]1C[C@H]3[C@@H]4CC[C@@H]5C[C@@H](OC(=O)NN)CC[C@]5(C)[C@H]4CC[C@]3(C)[C@H]1[C@@H]2C | 11.2 | – | –
C[C@H]1CC[C@@]2(OC1)O[C@H]1C[C@H]3[C@@H]4CC[C@@H]5C[C@@H](OC(=O)NC(=N)NC#N)CC[C@]5(C)[C@H]4CC[C@]3(C)[C@H]1[C@@H]2C | 23.5 | – | –
COc1ccc(CNC(=O)O[C@H]2CC[C@@]3(C)[C@H](CC[C@@H]4[C@@H]3CC[C@]3(C)[C@@H]5[C@H](C[C@@H]43)O[C@]3(CC[C@H](C)CO3)[C@H]5C)C2)cc1 | 21.5 | – | –
CC(C)CNC(=O)O[C@H]1CC[C@@]2(C)[C@H](CC[C@@H]3[C@@H]2CC[C@]2(C)[C@@H]4[C@H](C[C@@H]32)O[C@]2(CC[C@H](C)CO2)[C@H]4C)C1 | 48.2 | 20.5 | Activity (Mus musculus [4]): Active
C[C@H]1CC[C@@]2(OC1)O[C@H]1C[C@H]3[C@@H]4CC[C@@H]5C[C@@H](OC(=O)NCCN)CC[C@]5(C)[C@H]4CC[C@]3(C)[C@H]1[C@@H]2C | – | – | Activity (PC-12 [1]): inactive
C[C@H]1CC[C@@]2(OC1)O[C@H]1C[C@H]3[C@@H]4CC[C@@H]5C[C@@H](OC(=O)NCc6ccccc6)CC[C@]5(C)[C@H]4CC[C@]3(C)[C@H]1[C@@H]2C | 49.4 | 8.9 | –
C[C@H]1CC[C@@]2(OC1)O[C@H]1C[C@H]3[C@@H]4CC[C@@H]5C[C@@H](OC(=O)NCc6ccc(O)cc6)CC[C@]5(C)[C@H]4CC[C@]3(C)[C@H]1[C@@H]2C | 18.9 | – | –
Cc1ccc(CNC(=O)O[C@H]2CC[C@@]3(C)[C@H](CC[C@@H]4[C@@H]3CC[C@]3(C)[C@@H]5[C@H](C[C@@H]43)O[C@]3(CC[C@H](C)CO3)[C@H]5C)C2)cc1 | 39.3 | – | –
C[C@H]1CC[C@@]2(OC1)O[C@H]1C[C@H]3[C@@H]4CC[C@@H]5C[C@@H](O)CC[C@]5(C)[C@H]4CC[C@]3(C)[C@H]1[C@@H]2C [SARSASAPOGENIN] | 3.3 | – | –
C[C@H]1CC[C@@]2(OC1)O[C@H]1C[C@H]3[C@@H]4CC[C@@H]5C[C@@H](OC(=O)N6CCCCC6)CC[C@]5(C)[C@H]4CC[C@]3(C)[C@H]1[C@@H]2C | 20.1 | 28.7 | –

From ChEMBL document CHEMBL4000176, “Synthesis and SAR study of novel sarsasapogenin derivatives as potent neuroprotective agents and NO production inhibitors” (2017)
